Experimental findings from US11286252B2, “Alkene spirocyclic compounds as farnesoid X receptor modulators” (BRISTOL-MYERS SQUIBB COMPANY, priority 2017, dated 2022) are described below.

Structures are written as SMILES.

One assay addresses T1, human FXR (Homo sapiens, UniProt Q96RI1).
T1 construct: expressed in transfected cells; host or cells: HEK293 cells stably carrying a 5xGal4-response-element firefly luciferase reporter, transiently transfected with pcDNA3.1-Gal4-FXR
T1 sequence (Q96RI1 262-486 limits assumed): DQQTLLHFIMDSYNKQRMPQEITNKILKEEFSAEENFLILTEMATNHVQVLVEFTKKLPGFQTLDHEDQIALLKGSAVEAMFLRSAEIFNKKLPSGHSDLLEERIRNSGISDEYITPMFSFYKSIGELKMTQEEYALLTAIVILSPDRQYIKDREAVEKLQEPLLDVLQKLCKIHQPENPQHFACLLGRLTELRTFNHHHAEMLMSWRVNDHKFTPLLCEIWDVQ
Kind of assay: transient human FXR/Gal4-luciferase reporter assay. Conditions: Gal4-hFXR fusion construct, luciferase reporter HEK293 cells; response relative to 8 μM GW-4064. In kind it is cell-based. The procedure:
The exemplified compounds of the present invention were tested in the transient human FXR/Gal4-luciferase reporter assay, and assay results were reported in Table 1 and Examples 1 to 3 together with other analytical data.
A Gal4-hFXR fusion construct reporter system was used as the primary assay to characterize compound activity. A construct including 5 copies of the Gal4 promoter response element upstream of a firefly luciferase reporter cDNA was stably expressed in HEK293 cells. This reporter cell line was maintained in Dulbecco's Modified Eagle's medium (DMEM; Gibco) supplemented with 1% penicillin-streptomycin (P/S) solution, 500 μg/mL Zeocin and 10% charcoal/dextran-treated fetal bovine serum (cs-FBS) at 37° C. in a humidified 5% CO2 atmosphere. Another plasmid was constructed in which the human cytomegalovirus promoter in the pcDNA3.1 vector directs the expression of the cDNA encoding a fusion protein comprised of the DNA binding domain from the Gal4 transcription factor fused to the ligand binding domain from human FXR.
The day prior to transfection, the reporter cells in culture are detached from the plate with trypsin and plated into a T75 flask at a sufficient density to achieve approximately 90% confluence the next morning. The transfection reagents are prepared by separately diluting 25 μg of the pcDNA3.1-Gal4-FXR plasmid into 1.87 mL of Opti-MEM (Thermo-Fisher), and 40 μL of Lipofectamine 2000 (Thermo-Fisher) into 1.87 mL of Opti-MEM, and then adding the diluted DNA solution into the diluted Lipofectamine 2000 solution and incubating at room temperature for 15-20 minutes. The mixture is further diluted with 10 mL of a solution comprised of DMEM, 10% cs-FBS, and 1% P/S immediately prior to transferring to the cells. The maintenance culture media is aspirated from the cells and the final transfection mixture is added before the cells are incubated overnight at 37° C. in a humidified 5% CO2 atmosphere. This protocol can be scaled up, and the transiently transfected cells can be cryopreserved in an assay-ready format.
For compound testing, 100 nL of the compounds (serial dilutions in DMSO) are dispensed with an Echo acoustic dispenser (Labcyte) into the wells of a Corning/Costar clear bottom 384-well white plate. The transfected cells are harvested, counted, and diluted such that 10-25,000 cells in 25 μL are plated into each well of the 384-well compound assay plate. The compound-treated cells are incubated overnight at 37° C. in a humidified 5% CO2 atmosphere. The next morning 25 μL of Steady-Glo (Promega) are added to each well of the plate, the mixture is incubated for 15 min. with shaking, and luminescence is measured on an Envision (Perkin Elmer) plate reader. Background counts from cells treated with DMSO alone are subtracted from all raw counts, and the corrected values are converted to a percentage of the control response attained with 8 μM GW-4064.
In general terms: In a reporter assay the amount or activity of a reporter protein is the signal.
The EC50 is the concentration giving half of the maximal effect. Read a high EC50 as a need for much substance. On to `COc1cc(C(=O)O)nc2ccc(N3CC4(CC(/C=C/c5c(-c6c(Cl)cncc6Cl)noc5C5CC5)C4)C3)cc12` [Example 1, (E)-6-(6-(2-(5-Cyclopropyl-3-(3,5-dichloropyridin-4-yl)isoxazol-4-yl)vinyl)-2-azaspiro[3.3]heptan-2-yl)-4-methoxyquinoline-2-carboxylic acid], for which the EC50 is 155 nM.

`COc1cc(C(=O)O)nc2ccc(N3CC4(CC(/C=C/c5c(-c6ccncc6Cl)noc5C5CC5)C4)C3)cc12` [Example 2, (E)-6-(6-(2-(3-(3-chloropyridin-4-yl)-5-cyclopropylisoxazol-4-yl)vinyl)-2-azaspiro[3.3]heptan-2-yl)-4-methoxyquinoline-2-carboxylic acid]: the response was half-maximal at 501 nM (EC50). Compared with the last compound, the EC50 is about 3.2-fold higher.

As to `O=C(O)c1cc(OC2CCC2)c2cc(N3CC4(CC(/C=C/c5c(-c6cccnc6C(F)(F)F)noc5C5CC5)C4)C3)ccc2n1` [Example 3, (E)-4-Cyclobutoxy-6-(6-(2-(5-cyclopropyl-3-(2-(trifluoromethyl)pyridin-3-yl)isoxazol-4-yl)vinyl)-2-azaspiro[3.3]heptan-2-yl)quinoline-2-carboxylic acid], the EC50 turned out to be 86 nM.

The same assay, now with this note: Gal4-hFXR fusion construct, luciferase reporter HEK293 cells; response relative to 8 μM GW-4064; unit inferred.
In turn, `Cc1cc(OCC2CC3(CC(/C=C/c4c(-c5ccccc5C(F)(F)F)noc4C4CC4)C3)C2)cnc1C(=O)O` (single isomer, unassigned) [Example 31, (E)-5-((6-(2-(5-Cyclopropyl-3-(2-(trifluoromethyl)phenyl)isoxazol-4-yl)vinyl)spiro [3.3]heptan-2-yl)methoxy)-3-methylpicolinic acid] returned an EC50 of 139 nM.

`O=C(O)c1cc(C(F)(F)F)c2cc(N3CC4(CC(/C=C/c5c(-c6c(Cl)cccc6Cl)noc5C5CC5)C4)C3)ccc2n1` [Example 4] showed an EC50 of 60 nM. Against the preceding compound, the EC50 is about 2.3-fold lower.

`O=C(O)c1ccc(N2CC3(CC(/C=C/c4c(-c5c(Cl)cccc5Cl)noc4C4CC4)C3)C2)cc1` [Example 5]: the response was half-maximal at 130 nM (EC50).

Consider `O=C(O)c1cc(C(F)(F)F)c2cc(N3CC4(CC(/C=C/c5c(-c6ccncc6Cl)noc5C5CC5)C4)C3)ccc2n1` [Example 6], for which the EC50 worked out at 140 nM.

The compound `O=C(O)c1cc(C(F)(F)F)c2cc(N3CC4(CC(/C=C/c5c(-c6c(Cl)cncc6Cl)noc5C5CC5)C4)C3)ccc2n1` [Example 7] returned a concentration for a half-maximal effect (EC50) of 530 nM.

`O=C(O)c1cc(C(F)(F)F)c2cc(N3CC4(CC(/C=C/c5c(-c6ccccc6C(F)(F)F)noc5C5CC5)C4)C3)ccc2n1` [Example 8]: the EC50 worked out at 137 nM.

In turn, `Cc1cc(C(=O)O)nc2sc(N3CC4(CC(/C=C/c5c(-c6ccccc6C(F)(F)F)noc5C5CC5)C4)C3)nc12` [Example 9] showed a half-maximal effective concentration (EC50) of 268 nM.

`O=C(O)c1cc(F)c2nc(N3CC4(CC(/C=C/c5c(-c6c(Cl)cncc6Cl)noc5C5CC5)C4)C3)sc2c1` [Example 10] registered a concentration giving a half-maximal response (EC50) of 667 nM.

Regarding `CC(C)Oc1cc(C(=O)O)nc2ccc(N3CC4(CC(/C=C/c5c(-c6c(Cl)cncc6Cl)noc5C5CC5)C4)C3)cc12` [Example 11], the 50% effective concentration (EC50) was found to be 79 nM.

As for `CC(C)Oc1cc(C(=O)O)nc2ccc(N3CC4(CC(/C=C/c5c(-c6ccccc6C(F)(F)F)noc5C5CC5)C4)C3)cc12` [Example 12], a half-maximal effect (EC50) was put at 29 nM.

With `Cc1nc(C(=O)O)cc2ccc(N3CC4(CC(/C=C/c5c(-c6c(Cl)cncc6Cl)noc5C5CC5)C4)C3)cc12` [Example 13], a half-maximal effect (EC50) was put at 429 nM.

`CCc1nc(C(=O)O)cc2ccc(N3CC4(CC(/C=C/c5c(-c6c(Cl)cncc6Cl)noc5C5CC5)C4)C3)cc12` [Example 14] registered an EC50 of 302 nM.

As to `CC(C)Oc1cc(C(=O)O)nc2ccc(N3CC4(CC(/C=C/c5c(-c6ncccc6C(F)(F)F)noc5C5CC5)C4)C3)cc12` [Example 15], a half-maximal effect (EC50) was put at 85 nM.

For `COc1cc(C(=O)O)nc2ccc(N3CC4(CC(/C=C/c5c(-c6ccccc6C(F)(F)F)noc5C5CC5)C4)C3)cc12` [Example 16], the EC50 stood at 104 nM.

`O=C(O)c1cc(OC2CCC2)c2cc(N3CC4(CC(/C=C/c5c(-c6c(Cl)cncc6Cl)noc5C5CC5)C4)C3)ccc2n1` [Example 17] displayed an EC50 of 85 nM.

`O=C(O)c1cc(OC2COC2)c2cc(N3CC4(CC(/C=C/c5c(-c6ccccc6C(F)(F)F)noc5C5CC5)C4)C3)ccc2n1` [Example 18] came in with an EC50 of 52 nM.

Compound `COc1nc(C(=O)O)cc2ccc(N3CC4(CC(/C=C/c5c(-c6ccccc6C(F)(F)F)noc5C5CC5)C4)C3)cc12` [Example 19] yielded an EC50 of 169 nM. Against the preceding compound, the EC50 is about 3.2-fold higher.

`O=C(O)c1cc(O[C@@H]2CCOC2)c2cc(N3CC4(CC(/C=C/c5c(-c6ccccc6C(F)(F)F)noc5C5CC5)C4)C3)ccc2n1` [Example 20] had an EC50 of 33 nM. Compared with the last compound, the EC50 is about 5.1-fold lower.

`O=C(O)c1cc(O[C@H]2CCOC2)c2cc(N3CC4(CC(/C=C/c5c(-c6ccccc6C(F)(F)F)noc5C5CC5)C4)C3)ccc2n1` [Example 21]: the 50% effective concentration (EC50) worked out at 18 nM. Compared with the last compound, the EC50 is about 1.8-fold lower.

Consider `COc1cc(C(=O)O)nc2ccc(N3CC4(CC(/C=C/c5c(-c6cccnc6C(F)(F)F)noc5C5CC5)C4)C3)cc12` [Example 22], for which the EC50 stood at 111 nM.

Consider `O=C(O)c1cc(OC2COC2)c2cc(N3CC4(CC(/C=C/c5c(-c6cccnc6C(F)(F)F)noc5C5CC5)C4)C3)ccc2n1` [Example 23], for which the EC50 is 165 nM.

In the case of `O=C(O)c1cc(OC2COC2)c2cc(N3CC4(CC(/C=C/c5c(-c6c(Cl)cncc6Cl)noc5C5CC5)C4)C3)ccc2n1` [Example 24], the EC50 was determined as 114 nM.

For `CCOc1cc(C(=O)O)nc2ccc(N3CC4(CC(/C=C/c5c(-c6cccnc6C(F)(F)F)noc5C5CC5)C4)C3)cc12` [Example 25], the EC50 was 153 nM.

With `O=C(O)c1cc(O[C@@H]2CCOC2)c2cc(N3CC4(CC(/C=C/c5c(-c6cccnc6C(F)(F)F)noc5C5CC5)C4)C3)ccc2n1` [Example 26], the EC50 was 231 nM.

Take `COc1cc(C(=O)O)nc2ccc(N3CC4(CC(/C=C/c5c(-c6c(Cl)cncc6Cl)noc5C5CC5)C4)C3)nc12` [Example 28]: the EC50 was found to be 1630 nM.

`Cn1nc(C(=O)O)cc1OCC1CC2(CC(/C=C/c3c(-c4c(Cl)cncc4Cl)noc3C3CC3)C2)C1` (stereo not shown) [Example 45] displayed an EC50 of 24 nM.

In turn, `O=C(O)c1cc(C(F)(F)F)c2cc(OCC3CC4(CC(/C=C/c5c(-c6c(Cl)cncc6Cl)noc5C5CC5)C4)C3)ccc2n1` (stereo not shown) [Example 46] came in with an EC50 of 22 nM. The EC50 values of the last two compounds are within 1.5-fold of each other.

On to `O=C(O)c1cccc(OCC2CC3(CC(/C=C/c4c(-c5c(Cl)cncc5Cl)noc4C4CC4)C3)C2)c1` (stereo not shown) [Example 47], for which the EC50 was found to be 40 nM.

The compound `NC(=O)c1cccc(OCC2CC3(CC(/C=C/c4c(-c5ccccc5C(F)(F)F)noc4C4CC4)C3)C2)c1` (stereo not shown) [Example 48] showed an EC50 of 214 nM.

With `NC(=O)Cc1ccc(OCC2CC3(CC(/C=C/c4c(-c5ccccc5C(F)(F)F)noc4C4CC4)C3)C2)cc1` (stereo not shown) [Example 49], the 50% effective concentration (EC50) came to 178 nM.

Take `Cc1cc(OCC2CC3(CC(/C=C/c4c(-c5ccccc5C(F)(F)F)noc4C4CC4)C3)C2)cnc1C(=O)O` (stereo not shown) [Example 50]: the concentration for a half-maximal effect (EC50) amounted to 142 nM. The EC50 values of the last two compounds are within 1.5-fold of each other.

In the case of `Cn1nc(C(=O)O)cc1OCC1CC2(CC(/C=C/c3c(-c4ccccc4C(F)(F)F)noc3C3CC3)C2)C1` (stereo not shown) [Example 51], the EC50 was determined as 99 nM.

`O=C(O)c1cc(C(F)(F)F)c2cc(OCC3CC4(CC(/C=C/c5c(-c6ccccc6C(F)(F)F)noc5C5CC5)C4)C3)ccc2n1` (stereo not shown) [Example 52] came in with an EC50 of 82 nM.

`O=C(O)c1ccc2cc(OCC3CC4(CC(/C=C/c5c(-c6ccccc6C(F)(F)F)noc5C5CC5)C4)C3)ccc2n1` (stereo not shown) [Example 53] displayed an EC50 of 187 nM.

Take `O=C(O)c1cc2ccc(OCC3CC4(CC(/C=C/c5c(-c6ccccc6C(F)(F)F)noc5C5CC5)C4)C3)cc2nn1` (stereo not shown) [Example 54]: it took 122 nM to reach a half-maximal effect (EC50).

For the compound `O=C(O)c1ncc(OCC2CC3(CC(/C=C/c4c(-c5c(Cl)cncc5Cl)noc4C4CC4)C3)C2)cc1C(F)(F)F` (stereo not shown) [Example 55], the midpoint of the response, the EC50, lay at 50 nM.

`O=C(O)c1ncc(OCC2CC3(CC(/C=C/c4c(-c5ccccc5C(F)(F)F)noc4C4CC4)C3)C2)cc1C(F)(F)F` (stereo not shown) [Example 56]: the EC50 worked out at 95 nM.
